Assay [1] has as its target T1, Tyk2 (Homo sapiens, UniProt P29597).
T1 construct: purchased Invitrogen
The experiment in a line: Tyk2 enzyme inhibition test (LANCE method). Format: biochemical. The settings on record: test compound 1 μM; read-out: Inhibitory rate (%) Tyk2 1 μM. An outline of the steps: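 LANCE TR-FRET read-out (ex 340/em 665 nm, 100 μs delay) of ULight-JAK1 phosphorylation, with no-enzyme wells as 100% inhibition. Reaction run 1 h at room temperature in pH 7.5 HEPES buffer; enzyme 375 ng/mL, substrate 300 nM and ATP 30 μM are solution concentrations before mixing.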
A general note: In TR-FRET formats the signal depends on donor and acceptor labels being close together.

Assay [2] addresses T2, JAK1 (Homo sapiens, UniProt P23458).
T2 construct: purchased Invitrogen
The experiment in a line: JAK1 enzyme inhibition test (LANCE method). Type of assay: biochemical. To be noted: test compound 1 μM; read-out: Inhibitory rate (%) JAK1 1 μM. A digest of the protocol:
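Reactions ran 1 h at room temperature in HEPES pH 7.5/MgCl2 buffer, with ATP solution at 150 μM and JAK1 and ULight peptide solutions at 187.5 ng/mL and 300 nM. Reactions were stopped with EDTA, and phosphorylation was read by Eu antibody time-resolved fluorescence at 665 nm. Inhibition was scaled to a no-enzyme control as 100%.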

Inhibition data for 27 compounds are collected here from patent publication US9371320B2, “Heterocyclic compound” (TAKEDA PHARMACEUTICAL COMPANY LIMITED, priority 2012, dated 2016).

Molecules are shown by their SMILES.

T1 sequence (P29597 whole entry): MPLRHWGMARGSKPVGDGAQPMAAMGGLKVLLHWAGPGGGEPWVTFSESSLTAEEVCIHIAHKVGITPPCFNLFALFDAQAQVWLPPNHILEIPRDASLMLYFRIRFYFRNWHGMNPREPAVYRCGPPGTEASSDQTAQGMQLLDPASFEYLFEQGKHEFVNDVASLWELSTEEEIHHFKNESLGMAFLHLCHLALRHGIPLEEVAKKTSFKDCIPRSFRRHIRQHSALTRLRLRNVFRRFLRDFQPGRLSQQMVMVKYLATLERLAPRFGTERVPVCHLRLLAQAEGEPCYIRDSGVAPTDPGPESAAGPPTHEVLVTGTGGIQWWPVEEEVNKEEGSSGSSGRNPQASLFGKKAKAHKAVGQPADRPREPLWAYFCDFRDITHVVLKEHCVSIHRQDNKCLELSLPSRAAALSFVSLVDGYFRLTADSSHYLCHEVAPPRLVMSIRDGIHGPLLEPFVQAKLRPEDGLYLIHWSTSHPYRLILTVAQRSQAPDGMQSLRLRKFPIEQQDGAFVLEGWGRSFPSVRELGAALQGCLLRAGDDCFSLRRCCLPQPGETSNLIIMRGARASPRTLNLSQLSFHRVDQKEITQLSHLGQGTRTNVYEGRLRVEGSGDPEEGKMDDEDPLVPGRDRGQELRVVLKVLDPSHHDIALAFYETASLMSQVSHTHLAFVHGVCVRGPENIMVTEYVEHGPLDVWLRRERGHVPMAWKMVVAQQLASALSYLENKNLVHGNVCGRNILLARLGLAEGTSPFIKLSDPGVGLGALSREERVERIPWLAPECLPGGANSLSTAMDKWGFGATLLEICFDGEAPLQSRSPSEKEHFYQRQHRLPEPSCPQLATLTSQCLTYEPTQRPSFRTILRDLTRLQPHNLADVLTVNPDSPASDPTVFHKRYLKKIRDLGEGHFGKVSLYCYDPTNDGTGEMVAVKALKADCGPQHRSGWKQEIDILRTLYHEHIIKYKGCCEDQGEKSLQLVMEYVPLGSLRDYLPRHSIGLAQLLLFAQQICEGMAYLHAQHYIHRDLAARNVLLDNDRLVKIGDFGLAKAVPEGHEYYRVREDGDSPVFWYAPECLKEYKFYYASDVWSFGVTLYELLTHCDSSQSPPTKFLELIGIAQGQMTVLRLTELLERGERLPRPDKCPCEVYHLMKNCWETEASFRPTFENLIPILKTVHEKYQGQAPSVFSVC
T2 sequence (P23458 whole entry): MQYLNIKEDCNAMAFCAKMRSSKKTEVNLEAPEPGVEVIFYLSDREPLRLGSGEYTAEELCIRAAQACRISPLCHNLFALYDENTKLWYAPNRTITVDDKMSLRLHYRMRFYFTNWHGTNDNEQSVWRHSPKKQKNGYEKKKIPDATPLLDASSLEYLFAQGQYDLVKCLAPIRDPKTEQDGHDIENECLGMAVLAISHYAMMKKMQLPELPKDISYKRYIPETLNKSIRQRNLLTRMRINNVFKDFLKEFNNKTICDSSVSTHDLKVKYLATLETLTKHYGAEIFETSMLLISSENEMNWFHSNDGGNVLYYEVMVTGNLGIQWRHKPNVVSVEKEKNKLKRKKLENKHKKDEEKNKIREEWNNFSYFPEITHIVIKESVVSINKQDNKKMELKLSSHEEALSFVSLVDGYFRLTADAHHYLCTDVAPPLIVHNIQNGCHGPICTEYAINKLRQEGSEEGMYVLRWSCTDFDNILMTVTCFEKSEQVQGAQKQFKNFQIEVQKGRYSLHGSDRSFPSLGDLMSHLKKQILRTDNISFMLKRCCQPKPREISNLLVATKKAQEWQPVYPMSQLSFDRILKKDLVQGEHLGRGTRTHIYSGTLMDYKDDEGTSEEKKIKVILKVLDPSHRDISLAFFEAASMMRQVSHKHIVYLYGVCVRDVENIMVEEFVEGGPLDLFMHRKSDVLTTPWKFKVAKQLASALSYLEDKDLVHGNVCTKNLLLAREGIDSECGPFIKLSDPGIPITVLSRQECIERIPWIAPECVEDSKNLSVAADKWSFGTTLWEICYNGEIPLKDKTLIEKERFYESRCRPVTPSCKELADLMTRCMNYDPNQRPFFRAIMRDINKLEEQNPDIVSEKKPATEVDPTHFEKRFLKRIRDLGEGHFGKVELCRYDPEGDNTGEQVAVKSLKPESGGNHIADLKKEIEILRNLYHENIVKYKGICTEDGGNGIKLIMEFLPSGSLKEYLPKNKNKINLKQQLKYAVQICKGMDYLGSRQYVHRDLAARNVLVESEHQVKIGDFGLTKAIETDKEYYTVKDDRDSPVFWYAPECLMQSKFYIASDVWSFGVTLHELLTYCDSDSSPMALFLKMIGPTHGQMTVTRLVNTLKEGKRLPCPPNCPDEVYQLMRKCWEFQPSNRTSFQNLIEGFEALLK

Turning to `CCC(CC)n1nc(-c2csc(C(N)=O)c2)c2c(=O)[nH]ccc21` [Example 149, 4-(4-oxo-1-(pentan-3-yl)-4,5-dihydro-1H-pyrazolo[4,3-c]pyridin-3-yl)thiophene-2-carboxamide], the inhibition at 1 µM was determined as 99% in assay [1] and 100% in assay [2].

For the compound `CCC(COC)n1nc(-c2csc(C(N)=O)c2)c2c(=O)[nH]ccc21` (stereo not drawn) [Example 150, 4-(1-(1-methoxybutan-2-yl)-4-oxo-4,5-dihydro-1H-pyrazolo[4,3-c]pyridin-3-yl)thiophene-2-carboxamide], the inhibition at 1 µM in assay [1] came out at 98%; in assay [2], 99%.

With `O=c1[nH]ccc2c1c(-c1cn[nH]c1)nn2-c1c(F)cccc1F` [Example 151, 1-(2,6-difluorophenyl)-3-(1H-pyrazol-4-yl)-1,5-dihydro-4H-pyrazolo[4,3-c]pyridin-4-one], the inhibition at 1 µM in assay [1] and in assay [2] was 98% in each case.

With `N#CCc1cc(-c2nn(-c3c(F)cccc3F)c3c(Cl)c[nH]c(=O)c23)cs1` [Example 152, (4-(7-chloro-1-(2,6-difluorophenyl)-4-oxo-4,5-dihydro-1H-pyrazolo[4,3-c]pyridin-3-yl)-2-thienyl)acetonitrile], the results for the inhibition at 1 µM in assay [1] and in assay [2] were 99% and 97%, respectively.

As for `CNC(=O)c1cc(-c2nn(C3CCCC3)c3cc[nH]c(=O)c23)cs1` [Example 155, 4-(1-cyclopentyl-4-oxo-4,5-dihydro-1H-pyrazolo[4,3-c]pyridin-3-yl)-N-methylthiophene-2-carboxamide], the inhibition at 1 µM was 99% in assay [1] and 100% in assay [2].

For the compound `O=C(NC1CC1)c1cc(-c2nn(C3CCCC3)c3cc[nH]c(=O)c23)cs1` [Example 156, 4-(1-cyclopentyl-4-oxo-4,5-dihydro-1H-pyrazolo[4,3-c]pyridin-3-yl)-N-cyclopropylthiophene-2-carboxamide], the inhibition at 1 µM in assay [1] and in assay [2] was 100% in each case.

For `O=C(NCCO)c1cc(-c2nn(C3CCCC3)c3cc[nH]c(=O)c23)cs1` [Example 157, 4-(1-cyclopentyl-4-oxo-4,5-dihydro-1H-pyrazolo[4,3-c]pyridin-3-yl)-N-(2-hydroxyethyl)thiophene-2-carboxamide], the inhibition at 1 µM came to 99% in assay [1] and 100% in assay [2].

On to `NC(=O)Cc1cccc(-c2nn(C3CCCC3)c3cc[nH]c(=O)c23)c1` [Example 158, 2-(3-(1-cyclopentyl-4-oxo-4,5-dihydro-1H-pyrazolo[4,3-c]pyridin-3-yl)phenyl)acetamide], for which the inhibition at 1 µM in assay [1] and in assay [2] was 91% in each case.

Turning to `NS(=O)(=O)c1cccc(-c2nn(C3CCCC3)c3cc[nH]c(=O)c23)c1` [Example 159, 3-(1-cyclopentyl-4-oxo-4,5-dihydro-1H-pyrazolo[4,3-c]pyridin-3-yl)benzenesulfonamide], the inhibition at 1 µM in assay [1] is 87%; in assay [2], 91%.

Take `NC(=O)Cc1cc(-c2nn(-c3c(F)cccc3F)c3c(Cl)c[nH]c(=O)c23)cs1` [Example 160, 2-(4-(7-chloro-1-(2,6-difluorophenyl)-4-oxo-4,5-dihydro-1H-pyrazolo[4,3-c]pyridin-3-yl)-2-thienyl)acetamide]: the inhibition at 1 µM in assay [1] and in assay [2] was 98% in each case.

With `O=c1[nH]cc(Cl)c2c1c(-c1ccc(N3CCOCC3)cc1)nn2-c1c(F)cccc1F` [Example 161, 7-chloro-1-(2,6-difluorophenyl)-3-(4-(morpholin-4-yl)phenyl)-1,5-dihydro-4H-pyrazolo[4,3-c]pyridin-4-one], the results for the inhibition at 1 µM in assay [1] and in assay [2] were 99% and 79%, respectively.

Take `CNC(=O)c1cc(-c2nn(-c3c(F)cccc3F)c3c(Cl)c[nH]c(=O)c23)cs1` [Example 162, 4-(7-chloro-1-(2,6-difluorophenyl)-4-oxo-4,5-dihydro-1H-pyrazolo[4,3-c]pyridin-3-yl)-N-methylthiophene-2-carboxamide]: the inhibition at 1 µM in assay [1] and in assay [2] was 99% in each case.

On to `N#CC1(NC(=O)c2cc(-c3nn(-c4c(F)cccc4F)c4c(Cl)c[nH]c(=O)c34)cs2)CC1` [Example 163, 4-(7-chloro-1-(2,6-difluorophenyl)-4-oxo-4,5-dihydro-1H-pyrazolo[4,3-c]pyridin-3-yl)-N-(1-cyanocyclopropyl)thiophene-2-carboxamide], for which the inhibition at 1 µM in assay [1] worked out at 100%; in assay [2], 98%.

Consider `O=c1[nH]cc(Cl)c2c1c(-c1ccc(N3CCOCC3)nc1)nn2-c1c(F)cccc1F` [Example 164, 7-chloro-1-(2,6-difluorophenyl)-3-(6-(morpholin-4-yl)pyridin-3-yl)-1,5-dihydro-4H-pyrazolo[4,3-c]pyridin-4-one], for which the results for the inhibition at 1 µM in assay [1] and in assay [2] were 99% and 66%, respectively.

Take `N#Cc1c[nH]c(=O)c2c(-c3csc(C(N)=O)c3)nn(C3CCCC3)c12` [Example 165, 4-(7-cyano-1-cyclopentyl-4-oxo-4,5-dihydro-1H-pyrazolo[4,3-c]pyridin-3-yl)thiophene-2-carboxamide]: the inhibition at 1 µM in assay [1] stood at 98%; in assay [2], 96%.

Regarding `Cn1cc(NC(=O)c2cc(-c3nn(-c4c(F)cccc4F)c4c(Cl)c[nH]c(=O)c34)cs2)cn1` [Example 166, 4-(7-chloro-1-(2,6-difluorophenyl)-4-oxo-4,5-dihydro-1H-pyrazolo[4,3-c]pyridin-3-yl)-N-(1-methyl-1H-pyrazol-4-yl)thiophene-2-carboxamide], the inhibition at 1 µM turned out to be 100% in assay [1] and 98% in assay [2].

With `N#CCOc1ccc(-c2nn(-c3c(F)cccc3F)c3c(Cl)c[nH]c(=O)c23)cc1` [Example 167, (4-(7-chloro-1-(2,6-difluorophenyl)-4-oxo-4,5-dihydro-1H-pyrazolo[4,3-c]pyridin-3-yl)phenoxy)acetonitrile], the figures for the inhibition at 1 µM in assay [1] and in assay [2] were 97% and 53%, respectively.

Consider `O=c1[nH]cc(Cl)c2c1c(-c1cccc(OCCO)c1)nn2-c1c(F)cccc1F` [Example 168, 7-chloro-1-(2,6-difluorophenyl)-3-(3-(2-hydroxyethoxyl)phenyl)-1,5-dihydro-4H-pyrazolo[4,3-c]pyridin-4-one], for which the inhibition at 1 µM in assay [1] was determined as 97%; in assay [2] it was 46%.

For `NC(=O)COc1ccc(-c2nn(-c3c(F)cccc3F)c3c(Cl)c[nH]c(=O)c23)cc1` [Example 169, 2-(4-(7-chloro-1-(2,6-difluorophenyl)-4-oxo-4,5-dihydro-1H-pyrazolo[4,3-c]pyridin-3-yl)phenoxy)acetamide], the inhibition at 1 µM in assay [1] was determined as 99%; in assay [2], 79%.

`NC(=O)c1cc(-c2nn(C3CCC(=O)CC3)c3cc[nH]c(=O)c23)cs1` [Example 170, 4-(4-oxo-1-(4-oxocyclohexyl)-4,5-dihydro-1H-pyrazolo[4,3-c]pyridin-3-yl)thiophene-2-carboxamide]: the inhibition at 1 µM in assay [1] was determined as 98%; in assay [2] it was 99%.

With `NC(=O)c1cc(-c2nn(C3CCC(O)CC3)c3cc[nH]c(=O)c23)cs1` (stereo not drawn) [Example 171, 4-(1-(4-hydroxycyclohexyl)-4-oxo-4,5-dihydro-1H-pyrazolo[4,3-c]pyridin-3-yl)thiophene-2-carboxamide], the inhibition at 1 µM in assay [1] and in assay [2] was 100% each time.

Regarding `NC(=O)c1cc(-c2nn(C3CCC(O)(c4ccccc4)CC3)c3cc[nH]c(=O)c23)cs1` (stereo not drawn) [Example 172, 4-(1-(4-hydroxy-4-phenylcyclohexyl)-4-oxo-4,5-dihydro-1H-pyrazolo[4,3-c]pyridin-3-yl)thiophene-2-carboxamide], the inhibition at 1 µM in assay [1] turned out to be 97%; in assay [2] it was 99%.

Consider `NS(=O)(=O)c1ccc(-c2nn(C3CCC(=O)CC3)c3cc[nH]c(=O)c23)cc1` [Example 173, 4-(4-oxo-1-(4-oxocyclohexyl)-4,5-dihydro-1H-pyrazolo[4,3-c]pyridin-3-yl)benzenesulfonamide], for which the inhibition at 1 µM stood at 96% in assay [1] and 99% in assay [2].

For the compound `NS(=O)(=O)c1ccc(-c2nn(C3CCC(O)(c4ccccc4)CC3)c3cc[nH]c(=O)c23)cc1` (stereo not drawn) [Example 174, 4-(1-(4-hydroxy-4-phenylcyclohexyl)-4-oxo-4,5-dihydro-1H-pyrazolo[4,3-c]pyridin-3-yl)benzenesulfonamide], the inhibition at 1 µM in assay [1] came out at 98%; in assay [2], 99%.

Regarding `NC(=O)Cn1cc(-c2nn(-c3c(F)cccc3F)c3c(Br)c[nH]c(=O)c23)cn1` [Example 175, 2-(4-(7-bromo-1-(2,6-difluorophenyl)-4-oxo-4,5-dihydro-1H-pyrazolo[4,3-c]pyridin-3-yl)-1H-pyrazol-1-yl)acetamide], the inhibition at 1 µM in assay [1] is 100%; in assay [2], 86%.

Consider `O=c1[nH]cc(Br)c2c1c(-c1cn[nH]c1)nn2-c1c(F)cccc1F` [Example 176, 7-bromo-1-(2,6-difluorophenyl)-3-(1H-pyrazol-4-yl)-1,5-dihydro-4H-pyrazolo[4,3-c]pyridin-4-one], for which the figures for the inhibition at 1 µM in assay [1] and in assay [2] were 100% and 95%, respectively.

As to `O=c1[nH]cc(Cl)c2c1c(-c1cn[nH]c1)nn2-c1c(F)cccc1F` [Example 177, 7-chloro-1-(2,6-difluorophenyl)-3-(1H-pyrazol-4-yl)-1,5-dihydro-4H-pyrazolo[4,3-c]pyridin-4-one], the values for the inhibition at 1 µM in assay [1] and in assay [2] were 100% and 91%, respectively.
